Source: BindingDB's records for PubMed 1356154 (Dupont Pharmaceuticals, 1992)
“And” between values parts separate entries of the source, which are not always exact repeats. Equal entries are not always repeated.

Molecular target: D(2) dopamine receptor (Rattus norvegicus, UniProt P61169)
Sequence (P61169 whole entry): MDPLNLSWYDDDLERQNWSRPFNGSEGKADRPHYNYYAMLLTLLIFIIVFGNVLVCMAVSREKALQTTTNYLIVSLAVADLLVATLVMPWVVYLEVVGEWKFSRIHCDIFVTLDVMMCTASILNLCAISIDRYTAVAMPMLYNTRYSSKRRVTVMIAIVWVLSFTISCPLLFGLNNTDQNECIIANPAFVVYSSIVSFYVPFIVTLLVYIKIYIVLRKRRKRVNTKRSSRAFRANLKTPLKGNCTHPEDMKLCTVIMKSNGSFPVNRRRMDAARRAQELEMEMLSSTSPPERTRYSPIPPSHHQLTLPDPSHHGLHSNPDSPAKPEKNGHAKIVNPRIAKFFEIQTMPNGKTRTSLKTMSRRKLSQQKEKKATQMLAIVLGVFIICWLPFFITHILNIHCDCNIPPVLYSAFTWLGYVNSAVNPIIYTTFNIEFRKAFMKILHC

Row | Compound | Ki
1 | NC1CCc2cc(O)c(O)cc2C1 (centres undefined) | 6.1 nM and 24 nM
2 | CC(C)C[C@H]1C(=O)N2CCC[C@H]2[C@]2(O)O[C@](NC(=O)[C@@H]3C=C4c5cccc6[nH]c(Br)c(c56)C[C@H]4N(C)C3)(C(C)C)C(=O)N12 [Bromocriptine+ (GTP+)] | 83 nM and 54 nM
3 | CN(C)CCCSc1ccccc1NC(=O)/C=C/c1ccccc1 [CINANSERIN] | > 10000 nM
4 | O=C(O)c1ccccc1C(=O)Nc1cccc2ccccc12 [NPA,(+)] | 4.8 nM
